Tests used:
[1] = test system: stasis-VT (vena cava thrombosis); experiment: Venous thrombosis, stasis VT model; format: in vivo; details: rat stasis VT
Procedure: General Surgical Preparation Male Sprague Dawley rats (310 to 390 g) were anesthetized with Na-pentobarbital (50 mg/kg i.p.). The left jugular vein was cannulated with PE-50 tubing for drug administration, and the trachea was intubated with PE-205 tubing to ensure airway patency. […] Statistical Analysis In the venous and arterial thrombosis procedures, treatment effects on thrombus weight, baseline blood flow, and average blood flow during thrombosis were determined by analysis of variance with Dunnett's test for comparison to the vehicle group. […] Treatment effects on bleeding times were determined by analysis of variance with Dunnett's test for comparison to the vehicle group. Both post-treatment and pre-treatment bleeding times and the relative bleeding time increases in sec were analyzed. […]

[2] = test system: FeCl2-VT (vena cava thrombosis); experiment: Venous thrombosis, vessel injury model (FeCl2-VT); format: in vivo; details: rat FeCl2-VT
Procedure: General Surgical Preparation Male Sprague Dawley rats (310 to 390 g) were anesthetized with Na-pentobarbital (50 mg/kg i.p.). The left jugular vein was cannulated with PE-50 tubing for drug administration, and the trachea was intubated with PE-205 tubing to ensure airway patency. In some animals, a carotid artery was cannulated with PE-50 tubing to obtain blood samples, and a procedure was followed as described in Schumacher et al., “Comparison of Thrombin Active-Site and Exosite Inhibitors and Heparin in Experimental Models of Arterial and Venous Thrombosis and Bleeding,” J. Pharmacol. Exp. Therap., Vol. 267 (1993), at pp. 1237-42; Schumacher et al., Effects of Antithrombotic Drugs in a Rat Model of Aspirin-Insensitive Arterial Thrombosis, Thromb Haemostasis, Vol. 69 (1993), at pp. 509-514; or Schumacher et al., Effect of a Novel Thrombin Active-Site Inhibitor on Arterial and Venous Thrombosis, Eur J Pharmacol., Vol. 259 (1994), at pp. 165-171, each of which is incorporated herein by reference. In each procedure, a small organic compound effective for inhibiting Factor XIa, as described herein, or saline vehicle, was administered i.v. as a loading infusion over 5 min plus a sustaining infusion that was maintained until the end of the procedure. Compound doses are indicated for each procedure in mg/kg plus mg/kg/hr. The volume of test article was 1 mL/kg plus 1 mL/kg/hr, except the 24 mg/kg+24 mg/kg/hr dose of compound where volume was doubled. […] Statistical Analysis In the venous and arterial thrombosis procedures, treatment effects on thrombus weight, baseline blood flow, and average blood flow during thrombosis were determined by analysis of variance with Dunnett's test for comparison to the vehicle group. […] Treatment effects on bleeding times were determined by analysis of variance with Dunnett's test for comparison to the vehicle group. Both post-treatment and pre-treatment bleeding times and the relative bleeding time increases in sec were analyzed. […]

FIXa = molecular target: T1, FIXa (Homo sapiens, UniProt P00740); experiment: Selectivity assay FIXa; format: biochemical; details: Table 3
T1 construct: purchased American Diagnostica
T1 sequence (P00740 227-461 limits assumed): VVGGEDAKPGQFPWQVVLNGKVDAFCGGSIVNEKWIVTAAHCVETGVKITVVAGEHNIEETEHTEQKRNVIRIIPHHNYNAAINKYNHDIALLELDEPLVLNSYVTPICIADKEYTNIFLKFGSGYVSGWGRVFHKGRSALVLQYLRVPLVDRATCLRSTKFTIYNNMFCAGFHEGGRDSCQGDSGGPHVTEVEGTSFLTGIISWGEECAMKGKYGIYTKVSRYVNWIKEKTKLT
T1 sequence (P00740 47-191 partner limits assumed): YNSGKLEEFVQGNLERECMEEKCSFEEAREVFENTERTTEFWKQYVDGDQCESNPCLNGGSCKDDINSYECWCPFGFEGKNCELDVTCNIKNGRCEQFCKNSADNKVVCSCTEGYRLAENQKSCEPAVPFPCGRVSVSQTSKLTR

IC50 (FIXa): 17.4 µM
Structure (SMILES): CC(C)(C)NC(=O)N1CCN(C(=O)N2C(=O)[C@H](CCCNC(=N)N)[C@H]2C(=O)O)CC1 [Example 4]
effect on thrombus weight ([1]; i.v. 2+2 mg/kg+mg/kg/hr): little effect
reduction in thrombus weight ([1]; i.v. 6+6 mg/kg+mg/kg/hr, FIG. 4): 64%
inhibition (reduction in thrombus weight) ([2]; i.v. 0.2+0.2 mg/kg+mg/kg/hr, FIG. 3): about 38%
dose dependence of thrombus weight reduction ([2]; i.v. 0.2+0.2 to 6+6 mg/kg+mg/kg/hr): Dose-dependent reductions
reduction in thrombus weight ([2]; i.v. 6+6 mg/kg+mg/kg/hr, FIG. 3): approximately 90%

From patent US20040180855A1, “Methods of treating thrombosis with reduced risk of increased bleeding times” (priority 2003, published 2004)
